Entries after “also recorded” stand apart in the source; their conditions may differ.
Legend:
Format in all cases: in vivo
[1] = test system: venom of Protobothrops mucrosquamatus; test: Efficacy against death caused by hemotoxic venom in ICR mice (flavonoid pre-mixed with venom, intradermal injection); conditions: venom 2.5 × LD50 per mouse, flavonoid 50 nmole per mouse
Experimental: The ICR mice were randomly divided into four groups, which included a pathological control group, two experimental groups (i.e., experimental groups 1 and 2), and one comparative group (n=7 mice in each group). Next, a respective one of the isorhamnetin, the quercetin, and the apigenin was mixed with a venom of Protobothrops mucrosquamatus in a volume ratio of 1:20, followed by incubation at 37° C. for 30 minutes, thereby forming a respective mixture solution. Afterward, the respective ICR mouse of each of the experimental groups 1 and 2 and the comparative group was intradermally injected with a suitable amount of the mixture solution as shown in Table 2 below. In addition, the respective ICR mouse in the pathological control group was intradermally injected with the venom of Protobothrops mucrosquamatus.
Subsequently, the survival number of the ICR mice in each group was observed and recorded at every hour until 10 hours after injection with the treating agent. The viability percentage (%) of the ICR mice in each group was calculated using the following Equation (1):
where A=viability percentage (%)
B=survival number of the ICR mice at every hour until 10 hours after injection with treating agent

[2] = test system: snake venom protein mixture (cardiotoxins and high molecular weight proteins from the venom of Naja atra); test: Cutaneous ulceration caused by snake venom proteins in ICR mice, topical administration; conditions: via topical administration
Description: (§1) For further study of the efficacy of isorhamnetin and quercetin in alleviating cutaneous ulceration caused by snake venom proteins, the applicants conducted experiments using a snake venom protein mixture containing snake venom proteins having a molecular weight of not lower than 43 kD and a cardiotoxin that might cause tissue necrosis, so as to avoid sudden death of the ICR mice due to other toxins that might have interfered with the observation.
(§2) First, cardiotoxins were isolated from a suitable amount of the venom of Naja atra with reference to the methods descried in SC Sue et al., (2001), Biochemistry, 40, 12782-12794. […] Next, the cardiotoxins and the high molecular weight proteins were mixed, so as to obtain a snake venom protein mixture containing 0.5 mg/mL of the cardiotoxins and 0.025 mg/mL of the high molecular weight proteins.
For further evaluating whether or not a similar result, as that of the experimental group 2 in Section A of this example, could be obtained when the isorhamnetin was applied via topical administration immediately after a subject suffered from a venomous snake bite, the following experiments were conducted.
First, 3.1 mg of the isorhamnetin was mixed with 1 mL of petroleum jelly in a melted state at 45° C., thereby obtaining an isorhamnetin ointment. […]

[3] = test system: snake venom protein mixture (cardiotoxins and high molecular weight proteins from the venom of Naja atra); test: Cutaneous ulceration caused by snake venom proteins in ICR mice, intradermal injection; conditions: for area of cutaneous ulcers compared to pathological control group (in words): 24th hour after injection, 50 nmole per mouse pre-mixed with 0.1 mL snake venom protein mixture, intradermal; for median effective dose (ED50) for reducing an area of a cutaneous ulcer: administered via intradermal injection
Description: as §1, §2
First, the ICR mice were randomly divided into three groups, including a pathological control group and two experimental groups (i.e., experimental groups 1 and 2) (n=7 mice in each group). Next, a respective one of the quercetin and isorhamnetin was mixed with a suitable amount of the snake venom protein mixture in a volume ratio of 1:20, followed by incubation at 37° C. for […], thereby forming a respective mixture solution. Afterward, the respective ICR mouse of the experimental groups 1 and 2 was intradermally injected with a suitable amount of the mixture solution as shown in Table 4 below. In addition, the respective ICR mouse in the pathological control group was intradermally injected with the snake venom protein mixture.
At the 24th hour after injection with the treating agent, cutaneous ulcers occurring in the ICR mice of each group were photographed and the area thereof was analyzed using ImageJ software.

venom of Naja nivea = test: Efficacy of isorhamnetin in alleviating toxicity from neurotoxic venom in ICR mice (isorhamnetin injected 30 minutes after venom); conditions: 48th hour after injection; isorhamnetin 50 nmole per mouse 30 minutes after venom 2.5 × LD50
Experimental: To closely simulate conditions of an emergency treatment in which the subject was a victim of a venomous snake bite, in this application, the ICR mice were injected with the venom of Naja nivea and the isorhamnetin separately (with a time interval therebetween) instead of simultaneously (i.e., mixed in advance for injection).
First, the ICR mice were randomly divided into two groups, including a pathological control group (i.e., pathological control group 7) and an experimental group (i.e., experimental group 7) (n=7 mice in each group). Next, the respective ICR mouse in each group was intradermally injected with a suitable amount of the venom of Naja nivea (dose: 2.5×LD50 per mouse). After 30 minutes, the respective ICR mouse in the experimental group was intradermally injected again with a suitable amount of the isorhamnetin (dose: 50 nmole per mouse).
Subsequently, the survival number of the ICR mice in each group was observed and recorded at every hour until 48 hours after injection with the treating agent. The viability percentage (%) of the ICR mice in each group was calculated using the Equation (1).

SMILES | effect against death caused by a hemotoxic venom (in words) [1] | median effective dose (ED50) for reducing an area of a cutaneous ulcer [2] | area of cutaneous ulcers compared to pathological control group (in words) [3] | median effective dose (ED50) for reducing an area of a cutaneous ulcer [3] | survival (in words) (venom of Naja nivea)
O=c1cc(-c2ccc(O)cc2)oc2cc(O)cc(O)c12 [apigenin, reference compound] | may accelerate death | – | – | – | –
COc1cc(-c2oc3cc(O)cc(O)c3c(=O)c2O)ccc1O [isorhamnetin] | effective against death caused by a hemotoxic venom | 0.6 mM | significantly reduced; also recorded: highest degree of reduction | 0.2 mM | could even survive until the 48th hour
O=c1c(O)c(-c2ccc(O)c(O)c2)oc2cc(O)cc(O)c12 [quercetin] | effective against death caused by a hemotoxic venom | – | significantly reduced | 1.2 mM | –
